Experimental data from patent publication US11708413B2 (priority 2016, dated 2023).
Where two headings read alike, the source gives them in different places.

How the values were obtained:
RPMI-8226 (MM) cells = test: cells; format: cell-based
Protocol: (§1) Cell lines tested included B-lymphoma, multiple myeloma, and leukemia cells.
(§2) Cytotoxicity effects of the free drug linkers and conjugates were measured with a cell proliferation assay. A total of 12500 cells in a volume of 25 μl were seeded in a 384-well flat bottom white polystyrene plate on the day of assay. Free drug-linkers and conjugates were formulated at 2× starting concentration (1000 nM for free drug linkers and 100 nM for ADCs) in RPMI medium and filtered through MultiScreen HTS 96-Well Filter Plates (Millipore). Filter sterilized samples were serial diluted (1:3) under sterile conditions and added into treatment wells. Plates were cultured at 37° C. in a CO2 incubator for 72 hrs. For cell viability measurement, 30 μl of Cell Titer-Glo® reagent (Promega Corp.) was added into each well, and plates processed as per product instructions. Relative luminescence was measured on an ENVISION® plate reader (Perkin-Elmer; Waltham, Mass.). Relative luminescence readings were converted to % viability using untreated cells as controls. Data was fitted with non-linear regression analysis, using log(inhibitor) vs. response, variable slope, 4 parameter fit equation using GraphPad Prism. Data was expressed as % relative cell viability vs. dose of free drug-linker or conjugate in nM.
(§3) Each of Conjugates A-F was evaluated for the ability to bind and kill cells expressing CD74. Cell lines tested included B-lymphoma, multiple myeloma, and leukemia cells. Controls included unconjugated anti-CD74 antibody.

OPM-2 (MM) cells = test: Cell killing assay (cell proliferation, Cell Titer-Glo), OPM-2 (MM); format: cell-based; conditions: 72 hrs, NK = no killing
Protocol: as §1, §2
(§4) Each of Conjugates A-F was evaluated for the ability to bind and kill cells expressing CD74. […]

RPMI-6666 (HL) cells = test: cells; format: cell-based
Protocol: as §1, §2, §1

ARD (MM) cells = test: cells; format: cell-based
Protocol: as §1, §2, §1

JVM-13 (CLL) cells = test: cells; format: cell-based
Protocol: as §1, §2, §1

SUP-B15 (ALL) cells = test: cells; format: cell-based
Protocol: as §1, §2, §1

BDCM (AML) cells = test: cells; format: cell-based
Protocol: as §1, §2, §1

SU-DHL-6 (NHL) cells = test: cells; format: cell-based, human
Protocol: as §1, §2, §1

K562 (CML) cells = test: Cell killing assay (cell proliferation, Cell Titer-Glo), K562 (CML); format: cell-based; conditions: 72 hrs, NK = no killing
Protocol: as §1, §2, §4

ARP-1 (MM) cells = format: cell-based, human
Protocol: as §1, §2, §1

CD74 on BDCM (AML) cells = biological target: T1, CD74 on BDCM (AML) cells (Homo sapiens, UniProt P04233); test: Cell binding assay (FACS), BDCM (AML); conditions: NB = no binding
T1 construct: endogenous in cells; host or cells: RPMI-6666, SU-DHL-6, ARD, ARP-1, RPMI-8226, OPM-2, BDCM, SUP-B15, JVM-13, K562
T1 sequence (P04233 1-296): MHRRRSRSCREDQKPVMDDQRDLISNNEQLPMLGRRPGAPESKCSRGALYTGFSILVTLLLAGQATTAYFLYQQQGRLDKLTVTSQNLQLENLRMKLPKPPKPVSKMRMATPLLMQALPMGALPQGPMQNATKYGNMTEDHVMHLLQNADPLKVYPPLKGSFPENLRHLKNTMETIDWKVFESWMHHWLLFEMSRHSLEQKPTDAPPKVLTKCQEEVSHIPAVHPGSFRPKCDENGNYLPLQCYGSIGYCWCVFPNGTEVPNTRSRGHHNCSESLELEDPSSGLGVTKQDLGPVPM
Protocol: as §1
(§5) Cell lines were maintained in RPMI, high glucose (Cellgro-Mediatech; Manassas, Va.) supplemented with 20% heat-inactivated fetal bovine serum (Hyclone; Thermo Scientific; Waltham, Mass.), 2 mM glutamax (Invitrogen; Carlsbad, Calif.) and 1×Pencillin/streptomycin (Cellgro-Mediatech; Manassas, Va.). Cells were harvested and re-suspended in FACS buffer (DPBS buffer supplemented with 1% bovine serum albumin). […] Cells were washed twice with ice-cold FACS buffer and incubated with 5 ug/ml Alexa 647 labeled donkey anti-human IgG antibody (Jackson Immune-Research) on ice for another 60 mins. Unstained cells and cells stained with secondary antibody alone were used as controls. Samples were then washed twice using FACS buffer and analyzed using a BD FACS Canto system. Mean fluorescence intensities were fitted using non-linear regression analysis with one site specific binding equation on GraphPad Prism. Data was expressed as geometric mean fluorescent intensity vs. antibody concentration in nM.
as §3

CD74 on ARP-1 (MM) cells = biological target: T2, CD74 on ARP-1 (MM) cells (Homo sapiens, UniProt P04233); test: Cell binding assay (FACS), ARP-1 (MM); conditions: geometric mean fluorescent intensity, NB = no binding
T2 construct: endogenous in cells; host or cells: RPMI-6666, SU-DHL-6, ARD, ARP-1, RPMI-8226, OPM-2, BDCM, SUP-B15, JVM-13, K562
T2 sequence (P04233 1-296): T1 sequence (P04233 1-296)
Protocol: as §1
as §5, with “Cells” for “Cell lines were maintained in RPMI, high glucose (Cellgro-Mediatech; Manassas, Va.) supplemented with 20% heat-inactivated fetal bovine serum (Hyclone; Thermo Scientific; Waltham, Mass.), 2 mM glutamax (Invitrogen; Carlsbad, Calif.) and 1×Pencillin/streptomycin (Cellgro-Mediatech; Manassas, Va.). Cells”
as §1

[1] = biological target: T3, CD74 on RPMI-6666 (HL) cells (Homo sapiens, UniProt P04233); test: Cell binding assay (FACS), RPMI-6666 (HL); conditions: NB = no binding
T3 construct: endogenous in cells; host or cells: RPMI-6666, SU-DHL-6, ARD, ARP-1, RPMI-8226, OPM-2, BDCM, SUP-B15, JVM-13, K562
T3 sequence (P04233 1-296): T1 sequence (P04233 1-296)
Protocol: as §1, §5, §3

[2] = biological target: T4, CD74 on JVM-13 (CLL) cells (Homo sapiens, UniProt P04233); test: Cell binding assay (FACS), JVM-13 (CLL); conditions: NB = no binding
T4 construct: endogenous in cells; host or cells: RPMI-6666, SU-DHL-6, ARD, ARP-1, RPMI-8226, OPM-2, BDCM, SUP-B15, JVM-13, K562
T4 sequence (P04233 1-296): T1 sequence (P04233 1-296)
Protocol: as §1, §5, §3

CD74 on ARD (MM) cells = biological target: T5, CD74 on ARD (MM) cells (Homo sapiens, UniProt P04233); test: Cell binding assay (FACS), ARD (MM); conditions: NB = no binding
T5 construct: endogenous in cells; host or cells: RPMI-6666, SU-DHL-6, ARD, ARP-1, RPMI-8226, OPM-2, BDCM, SUP-B15, JVM-13, K562
T5 sequence (P04233 1-296): T1 sequence (P04233 1-296)
Protocol: as §1, §5, §3

[3] = biological target: T6, CD74 on SU-DHL-6 (NHL) cells (Homo sapiens, UniProt P04233); test: Cell binding assay (FACS), SU-DHL-6 (NHL); conditions: NB = no binding
T6 construct: endogenous in cells; host or cells: SU-DHL-6
T6 sequence (P04233 1-296): T1 sequence (P04233 1-296)
Protocol: as §1, §5, §3

[4] = biological target: T7, CD74 on SUP-B15 (ALL) cells (Homo sapiens, UniProt P04233); test: Cell binding assay (FACS), SUP-B15 (ALL); conditions: NB = no binding
T7 construct: endogenous in cells; host or cells: RPMI-6666, SU-DHL-6, ARD, ARP-1, RPMI-8226, OPM-2, BDCM, SUP-B15, JVM-13, K562
T7 sequence (P04233 1-296): T1 sequence (P04233 1-296)
Protocol: as §1, §5, §3

[5] = biological target: T8, CD74 on RPMI-8226 (MM) cells (Homo sapiens, UniProt P04233); test: Cell binding assay (FACS), RPMI-8226 (MM); conditions: NB = no binding
T8 construct: endogenous in cells; host or cells: RPMI-8226
T8 sequence (P04233 1-296): T1 sequence (P04233 1-296)
Protocol: as §1, §5, §3

[6] = ARD (MM) cells, 72 hrs, Cell Titer-Glo, NK = no killing
[7] = FACS, geometric mean fluorescent intensity

Question: What does the source list for `COc1cc2cc(c1Cl)N(C)C(=O)C[C@H](OC(=O)[C@H](C)N(C)C(=O)CCCC(=O)N(C)CCOCCOCCOCCOCc1cn(C)nn1)[C@]1(C)O[C@H]1[C@H](C)[C@@H]1C[C@@](O)(NC(=O)O1)[C@H](OC)/C=C/C=C(/C)C2` [Conjugate B]?
Answer: IC50 (RPMI-8226 (MM) cells; 72 h): 51 nM; Cell Killing Activity Span (RPMI-8226 (MM) cells; RPMI-8226 (MM) cells, 72 hrs, Cell Titer-Glo, NK = no killing): 41%; IC50 (OPM-2 (MM) cells): > 50 nM; IC50 (RPMI-6666 (HL) cells; 72 h): 1.3 nM; Cell Killing Activity Span (RPMI-6666 (HL) cells; RPMI-6666 (HL) cells, 72 hrs, Cell Titer-Glo, NK = no killing): 89%; IC50 (ARD (MM) cells; 72 h): 31 nM; Cell Killing Activity Span (ARD (MM) cells; [6]): 53%; IC50 (JVM-13 (CLL) cells; 72 h): 2 nM; Cell Killing Activity Span (JVM-13 (CLL) cells; JVM-13 (CLL) cells, 72 hrs, Cell Titer-Glo, NK = no killing): 69%; IC50 (SUP-B15 (ALL) cells; 72 h): 5.7 nM; Cell Killing Activity Span (SUP-B15 (ALL) cells; SUP-B15 (ALL) cells, 72 hrs, Cell Titer-Glo, NK = no killing): 72%; IC50 (BDCM (AML) cells; 72 h): 15 nM; Cell Killing Activity Span (BDCM (AML) cells; BDCM (AML) cells, 72 hrs, Cell Titer-Glo, NK = no killing): 95%; IC50 (SU-DHL-6 (NHL) cells; 72 h): 1.3 nM; Cell Killing Activity Span (SU-DHL-6 (NHL) cells; SU-DHL-6 (NHL) cells, 72 hrs, Cell Titer-Glo, NK = no killing): 98%; IC50 (K562 (CML) cells): > 50 nM; IC50 (ARP-1 (MM) cells; 72 h): 16 nM; Cell Killing Activity Span (ARP-1 (MM) cells; ARP-1 (MM) cells, 72 hrs, Cell Titer-Glo, NK = no killing): 82%

Question: Which results are given for `COc1cc2cc(c1Cl)N(C)C(=O)C[C@H](OC(=O)[C@H](C)N(C)C(=O)CCCC(=O)N(C)CCOCCOCCOCCOCCC(=O)NCCC(=O)N1Cc3ccccc3C#Cc3ccccc31)[C@]1(C)O[C@H]1[C@H](C)[C@@H]1C[C@@](O)(NC(=O)O1)[C@H](OC)/C=C/C=C(/C)C2` [Free Linker-Drug, DBCO-PEG4-maytansine, reference compound]?
Answer: IC50 (RPMI-8226 (MM) cells; Homo sapiens, RPMI-8226 (MM) cells, 72 hrs, Cell Titer-Glo, NK = no killing, read-out: Cell Killing Activity IC50): 18 nM; IC50 (OPM-2 (MM) cells; Homo sapiens): 24 nM; IC50 (RPMI-6666 (HL) cells; Homo sapiens, RPMI-6666 (HL) cells, 72 hrs, Cell Titer-Glo, NK = no killing, read-out: Cell Killing Activity IC50): ~13 nM; Cell Killing Activity Span (ARD (MM) cells; [6]): 40%; IC50 (ARD (MM) cells; ARD (MM) cells, 72 hrs, Cell Titer-Glo, NK = no killing, read-out: Cell Killing Activity IC50): ~34 nM; IC50 (JVM-13 (CLL) cells; JVM13, JVM-13 (CLL) cells, 72 hrs, Cell Titer-Glo, NK = no killing, read-out: Cell Killing Activity IC50): 25 nM; IC50 (SUP-B15 (ALL) cells; Homo sapiens, SUP-B15 (ALL) cells, 72 hrs, Cell Titer-Glo, NK = no killing, read-out: Cell Killing Activity IC50): 11 nM; IC50 (BDCM (AML) cells; BDCM (AML) cells, 72 hrs, Cell Titer-Glo, NK = no killing, read-out: Cell Killing Activity IC50): 13 nM; IC50 (SU-DHL-6 (NHL) cells; Homo sapiens, SU-DHL-6 (NHL) cells, 72 hrs, Cell Titer-Glo, NK = no killing, read-out: Cell Killing Activity IC50): 15 nM; IC50 (K562 (CML) cells; Homo sapiens): 60 nM

B1: anti-CD74 (antibody, V domains shown)
VH: QVQLVESGGGVVQPGRSLRLSCAASGFNFSDYGMHWVRQAPGKGLEWVAVIWYDGSISYYADSVKGRFTISRDNSKNTLYLQMNSLRAEDTAVYYCARGGTVEHGAVYGTDVWGQGTTVTVSS
VL: DIQMTQSPSSVSASVGDRVTITCRASQGIGSWLAWYQQKPGKAPKLLIYAADRLQSGVPSRFSGSGSGTDFTLTISSLQPEDFATYYCQQYHTYPLTFGGGTKVEIK
Question: What does the source list for B1?
Answer: Bmax (CD74 on BDCM (AML) cells; [7]): 3059; Kd (CD74 on BDCM (AML) cells; cell binding): 4.5 nM; Bmax (CD74 on ARP-1 (MM) cells): 341; Bmax [1, 7]: 3879; Kd ([1]; cell binding): 2.3 nM; Bmax [2, 7]: 447; Kd ([2]; cell binding): 2.5 nM; Bmax (CD74 on ARD (MM) cells; [7]): 190; Kd (CD74 on ARD (MM) cells; cell binding): 2.6 nM; Bmax [3, 7]: 1565; Kd ([3]; cell binding): 2 nM; Bmax [4, 7]: 680; Kd ([4]; cell binding): 3.5 nM; Bmax [5, 7]: 119; Kd ([5]; cell binding): 3.6 nM
